Laboratory results: US9006269B2, “Azetidine derivatives” (Vernalis (R&D) Ltd., priority 2008, dated 2015)

Experiments:
[1] = molecular target: rat FAAH protein (30-579) (Rattus norvegicus (Rat), UniProt P97612); test: Rat FAAH inhibition assay (AAMCA fluorescence); type: biochemical; details: 3-hour pre-incubation with compound, 120 nM FAAH; read-out: FAAH Rat IC50 (nM) 180 minutes
From the text: Rat FAAH Inhibition Assay
Active rat FAAH protein (30-579) was isolated as described in the literature. The coding sequence of amino acids 30-579 of rat FAAH were cloned into the expression vector pET28a to provide an N-terminal His-tag. Following expression, the His-tagged FAAH′ (30-579) was isolated using a method based on Patricelli et al., 1998; Biochemistry vol 37, p 15177 with a combination of chelating sepharose, heparin sepharose and size exclusion chromatography.
FAAH activity was determined by measuring the liberation of the highly fluorescent 7-amino, 4-methyl Coumarin (AMC) generated during hydrolysis of the substrate Arachidonoyl 7-Amino, 4-methyl Coumarin Amide (AAMCA) by FAAH. Inhibition of FAAH activity was determined as a percentage reduction of the fluorescence determined in the absence of compound.
The assay was carried out in black-walled, clear bottom, 384-well plates. 27.5 μl of FAAH protein (in FAAH assay buffer: 50 mM Hepes, 0.01% Triton X-100, 1 mM EDTA, 0.5 mg/ml BSA (fatty-acid-free), pH 8.2) was pre-incubated, at 120 nM, with increasing concentrations of compounds (2.5 μl in 100% DMSO) for 0, 1 or 3 hours at room temperature. 2.5 μl of DMSO was added for ‘total’ controls (100% FAAH activity) and 2.5 μl of URB-597, a known inhibitor of FAAH activity, (at a final, saturating, concentration of 10 μM) was used for ‘non-specific’ controls (0% FAAH activity). 20 μl of 7.5 μM AAMCA substrate (in FAAH assay buffer) was then added to all wells and incubated at room temperature for a further 1.5 hours. Fluorescence was determined at an excitation wavelength of 355 nm and an emission wavelength of 460 nm using a Flexstation plate reader (Molecular Devices, UK). Inhibition of FAAH activity, by the compounds, was determined as the percentage reduction in relative fluorescence units (RFU) compared to the ‘total’ controls (in the absence of compound) minus the ‘non-specific’ controls. IC50 values were determined, from 10-point dose response curves, in XL-Fit using a 4-Parameter Logistic Model (Sigmoidal Dose-Response Model).
The following Table 1 provides the 3-hour incubation results of testing the compounds of Examples 1-4 herein in the above rat FAAH inhibition assay.

[2] = Plasma concentrations after oral administration in laboratory rats; type: in vivo, rat
FAAH = FAAH (Homo sapiens (Human), UniProt O00519); test: Intrinsic FAAH inhibitory potency (summary statement); type: biochemical; details: qualitative statement
human FAAH 1 = human FAAH 1 (Homo sapiens (Human), UniProt O00519); test: Human FAAH 1 assay (AAMCA fluorescence); type: biochemical; details: 1 hour pre-incubation with compound, 10 nM FAAH; read-out: FAAH Human IC50 (nM) 60 minutes (n = 2)
Protocol: Part B Human FAAH 1 Assay
Human FAAH 1 activity was determined by measuring the liberation of the highly fluorescent 7-amino, 4-methyl Coumarin (AMC) generated during hydrolysis of the substrate arachidonoyl 7-amino, 4-methyl coumarin amide (AAMCA) by FAAH. Inhibition of human FAAH 1 activity was determined as a percentage reduction of the fluorescence determined in the absence of compound.
The assay was carried out in black-walled, clear bottom, 384-well plates. 27.5 μl of human FAAH 1 protein (in FAAH assay buffer: 50 mM Hepes, 0.01% Triton X-100, 1 mM EDTA, 0.5 mg/ml BSA (fatty-acid-free), pH 8.2) was pre-incubated, at 10 nM, with increasing concentrations of compounds (2.5 μl in 100% DMSO) for 1 hour at room temperature. 2.5 μl of DMSO was added for ‘total’ controls (100% FAAH activity) and 2.5 μl of URB-597, a known inhibitor of FAAH activity, (at a final, saturating, concentration of […]) was used for ‘non-specific’ controls (0 FAAH activity). 20 μl of 7.5 μM AAMCA substrate (in FAAH assay buffer) was then added to all wells and incubated at room temperature for a further 4 hours. Fluorescence was determined at an excitation wavelength of 355 nm and an emission wavelength of 460 nm using a Flexstation plate reader (Molecular Devices, UK). Inhibition of human FAAH 1 activity, by the compounds, was determined as the percentage reduction in relative fluorescence units (RFU) compared to the ‘total’ controls (in the absence of compound) minus the ‘non-specific’ controls. IC50 values were determined, from 10-point dose response curves, in XL-Fit using a 4-Parameter Logistic Model (Sigmoidal Dose-Response Model).

[3] = test system: carrageenan-induced thermal hypersensitivity; test: Rat carrageenan induced thermal hyperalgesia model of inflammatory pain; type: in vivo
Protocol: Part C Rat Carrageenan Induced Thermal Hyperalgesia Model of Inflammatory Pain.
Male Wistar rats were assessed for thermal pain sensitivity by applying a focused light beam onto the hind paws and recording the time to paw withdrawal, before and after local intraplantar administration of carrageenan. After 3 h, thermal pain sensitivity was reassessed in treated and untreated hind paws prior to dosing with test compound or vehicle. Indomethacin was administered as a positive control.
Male Sprague Dawley rats were tail-marked, and acclimatised to the plantar boxes on 3 separate occasions (6, 5 and 1 day prior to the test day) for at least 5 min on each occasion. On the pre-test day, the rats were habituated to the test room for at least 30 min prior to testing. The rats were put into the Hargreaves plantar boxes, allowed to settle down for approx 3-5 min, and challenged with the mobile radiant heat source. The latency to withdraw both left and right hindpaws from the heat source was determined on 2 occasions (3 min apart). The mean across the 2 challenges was recorded as the baseline for each animal. Rats 18 and 30 were not used in the study as they had very high baseline readings, and they were replaced by 61 and 63. Rats were then allocated to drug treatments ensuring the baseline latencies were balanced across groups.
On the test day, rats received intraplantar carrageenan lambda (100 uL of 1% in saline), or saline in right hindpaw 3 hours before testing. Four hours before testing, rats received VER-158416 (1, 3, or 10 mg/kg) or vehicle (5% EtOH: 95% (1% methylcellulose in water) p.o. Subsequently, 30 min before testing, rats received a second injection of either indomethacin 10 mg/kg or vehicle (50% 0.1M Na2CO3: 47.5% phosphate buffered saline (PBS): 2.5% 1M HCl) i.p. At the scheduled test time following drug treatment, the latency to withdraw the paw from the radiant heat source was reassessed by a single reading.
For example, the compound of Example 13 above was tested as follows:
Rats were dosed with intraplantar carrageenan at t=0; the compound of Example 13 (1, 3 & 10 mg/kg po) or vehicle (5% EtOH: 95% (1% methylcellulose in water) at t=2 h; indomethacin (10 mg/kg ip) or vehicle at t=2.5 h and thermal sensitivity was measured at t=3 h. Thus all rats received both oral and ip dosing.

FAAH, sequence (O00519 whole entry): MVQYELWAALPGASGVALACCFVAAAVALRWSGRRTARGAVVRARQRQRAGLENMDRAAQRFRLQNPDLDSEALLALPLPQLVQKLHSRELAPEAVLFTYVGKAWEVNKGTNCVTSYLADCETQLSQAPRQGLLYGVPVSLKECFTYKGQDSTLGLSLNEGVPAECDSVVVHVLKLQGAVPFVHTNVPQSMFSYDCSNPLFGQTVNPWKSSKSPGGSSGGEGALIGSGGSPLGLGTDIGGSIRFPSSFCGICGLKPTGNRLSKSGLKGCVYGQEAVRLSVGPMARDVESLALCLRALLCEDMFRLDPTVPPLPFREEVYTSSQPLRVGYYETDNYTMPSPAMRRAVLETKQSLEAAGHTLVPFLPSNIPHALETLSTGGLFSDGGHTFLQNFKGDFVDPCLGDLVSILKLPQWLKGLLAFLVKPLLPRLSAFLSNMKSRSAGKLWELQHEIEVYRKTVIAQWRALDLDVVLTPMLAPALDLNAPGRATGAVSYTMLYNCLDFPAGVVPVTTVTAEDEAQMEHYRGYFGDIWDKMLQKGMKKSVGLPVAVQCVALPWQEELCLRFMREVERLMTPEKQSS
human FAAH 1, sequence (O00519 whole entry): as above
rat FAAH protein (30-579), sequence (P97612 30-579): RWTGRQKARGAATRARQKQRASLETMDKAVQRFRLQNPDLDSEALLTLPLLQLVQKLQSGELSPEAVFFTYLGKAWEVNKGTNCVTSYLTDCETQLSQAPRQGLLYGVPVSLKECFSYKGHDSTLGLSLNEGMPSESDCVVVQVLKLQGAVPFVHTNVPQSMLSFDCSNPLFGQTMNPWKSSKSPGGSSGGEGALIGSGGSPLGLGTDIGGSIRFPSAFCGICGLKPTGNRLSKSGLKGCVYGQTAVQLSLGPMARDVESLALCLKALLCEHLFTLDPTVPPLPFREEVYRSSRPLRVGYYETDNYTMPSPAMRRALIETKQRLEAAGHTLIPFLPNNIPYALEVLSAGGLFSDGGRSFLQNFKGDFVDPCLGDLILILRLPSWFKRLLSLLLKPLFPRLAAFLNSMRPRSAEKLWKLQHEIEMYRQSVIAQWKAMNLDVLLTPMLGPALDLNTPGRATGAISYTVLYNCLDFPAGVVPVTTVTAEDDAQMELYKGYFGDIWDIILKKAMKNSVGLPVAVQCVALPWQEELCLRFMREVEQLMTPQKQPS

O=C(Nc1ccccc1)N1CC(Oc2ccc(-c3ccccc3)cc2)C1 [Example 1, 3-(biphenyl-4-yloxy)-azetidine-1-carboxylic acid phenylamide]
IC50 [1]: 135 nM

O=C(Nc1cccc(F)c1)N1CC(Oc2ccc(-c3ccccc3)cc2)C1 [Example 2, 3-(Biphenyl-4-yloxy)-azetidine-1-carboxylic acid (3-fluoro-phenyl)-amide]
IC50 [1]: 279 nM

O=C(Nc1ccccc1F)N1CC(Oc2ccc(-c3ccccc3)cc2)C1 [Example 3, 3-(Biphenyl-4-yloxy)-azetidine-1-carboxylic acid (2-fluoro-phenyl)-amide]
IC50 [1]: 77 nM

O=C(Nc1cccnc1)N1CC(Oc2ccc(-c3ccccc3)cc2)C1 [Example 4, 3-(Biphenyl-4-yloxy)-azetidine-1-carboxylic acid pyridin-3-ylamide]
IC50 [1]: 67 nM
plasma concentrations after oral administration [2]: high and prolonged
intrinsic-FAAH inhibitory potency (FAAH): good

COCCOc1cccc(-c2ccc(OC3CN(C(=O)Nc4ccncn4)C3)nc2)c1 [Example 5, 3-{5-[3-(2-Methoxy-ethoxy)-phenyl]-pyridin-2-yloxy}-azetidine-1-carboxylic acid pyrimidin-4-ylamide]
IC50 (human FAAH 1): 9 nM

COCCOc1cccc(-c2ccc(OC3CN(C(=O)Nc4cnccn4)C3)nc2)c1 [Example 6, 3-{5-[3-(2-Methoxy-ethoxy)-phenyl]-pyridin-2-yloxy}-azetidine-1-carboxylic acid pyrazin-2-ylamide]
IC50 (human FAAH 1): 73 nM

COCCOc1cccc(-c2ccc(OC3CN(C(=O)Nc4cccnn4)C3)nc2)c1 [Example 7, 3-{5-[3-(2-Methoxy-ethoxy)-phenyl]-pyridin-2-yloxy}-azetidine-1-carboxylic acid pyridazin-3-ylamide]
IC50 (human FAAH 1): 19 nM
plasma concentrations after oral administration [2]: high and prolonged
intrinsic-FAAH inhibitory potency (FAAH): good

COCCOc1cccc(-c2ccc(OC3CN(C(=O)Nc4cccnc4)C3)nc2)c1 [Example 8, 3-{5-[3-(2-Methoxy-ethoxy)-phenyl]-pyridin-2-yloxy}-azetidine-1-carboxylic acid pyridin-3-ylamide]
IC50 (human FAAH 1): 18 nM

O=C(Nc1cccnn1)N1CC(Oc2ccc(-c3cccc(OCCOCc4ccccc4)c3)cn2)C1 [Example 9, 3-{5-[3-(2-Benzyloxy-ethoxy)-phenyl]-pyridin-2-yloxy}-azetidine-1-carboxylic acid pyridazin-3-ylamide]
IC50 (human FAAH 1): 3 nM

O=C(Nc1cccnn1)N1CC(Oc2ccc(-c3cccc(OCCO)c3)cn2)C1 [Example 10, 3-{5-[3-(2-Hydroxy-ethoxy)-phenyl]-pyridin-2-yloxy}-azetidine-1-carboxylic acid pyridazin-3-ylamide]
IC50 (human FAAH 1): 49 nM

COCCOc1ccc(OC)c(-c2ccc(OC3CN(C(=O)Nc4cccnn4)C3)nc2)c1 [Example 11, 3-{5-[2-Methoxy-5-(2-methoxy-ethoxy)-phenyl]-pyridin-2-yloxy}-azetidine-1-carboxylic acid pyridazin-3-ylamide]
IC50 (human FAAH 1): 19 nM

COc1ccc(OC)c(-c2ccc(OC3CN(C(=O)Nc4cccnn4)C3)nc2)c1 [Example 12, 3-[5-(2,5-Dimethoxy-phenyl)-pyridin-2-yloxy]-azetidine-1-carboxylic acid pyridazin-3-ylamide]
IC50 (human FAAH 1): 12 nM

O=C(Nc1cccnn1)N1CC(Oc2ccc(-c3ccccc3)cn2)C1 [Example 13, 3-(5-Phenyl-pyridin-2-yloxy)-azetidine-1-carboxylic acid pyridazin-3-ylamide]
IC50 (human FAAH 1): 38 nM
effect on contralateral paw sensitivities to thermal pain ([3]; 1, 3, 10 mg/kg p.o., rat): no effect
inhibition of carrageenan-induced thermal hypersensitivity ([3]; 1, 3, 10 mg/kg p.o., rat): dose-related inhibition
reduction of pain sensitivity to below normal levels ([3]; 1, 3, 10 mg/kg p.o., rat): did not reduce pain sensitivity to below normal levels
statistical significance of inhibition vs vehicle/carrageenan group ([3]; at 3 and 10 mg/kg doses p.o., one way ANOVA, Newman-Keuls): reached statistical significance
plasma concentrations after oral administration [2]: high and prolonged
intrinsic-FAAH inhibitory potency (FAAH): good

O=C(Nc1cccnn1)N1CC(Oc2ccc(-c3c(F)cccc3F)cn2)C1 [Example 14, 3-[5-(2,6-Difluoro-phenyl)-pyridin-2-yloxy]-azetidine-1-carboxylic acid pyridazin-3-ylamide]
IC50 (human FAAH 1): 14 nM

COCCOc1ccc(Cl)c(-c2ccc(OC3CN(C(=O)Nc4cccnn4)C3)nc2)c1 [Example 15, 3-{5-[2-Chloro-5-(2-methoxy-ethoxy)-phenyl]-pyridin-2-yloxy}-azetidine-1-carboxylic acid pyridazin-3-yl-amide]
IC50 (human FAAH 1): 7 nM

O=C(Nc1cnccn1)N1CC(Oc2ccc(-c3ccccc3F)cn2)C1 [Example 16, 3-[5-(2-Fluoro-phenyl]-pyridin-2-yloxy]-azetidine-1-carboxylic acid pyrazin-2-ylamide]
IC50 (human FAAH 1): 42 nM

COc1ccccc1-c1ccc(OC2CN(C(=O)Nc3cccnn3)C2)nc1 [Example 17, 3-[5-(2-Methoxy-phenyl)-pyridin-2-yloxy]-azetidine-1-carboxylic acid pyridazin-3-ylamine]
plasma concentrations after oral administration [2]: high and prolonged

O=C(Nc1cccnn1)N1CC(Oc2ccc(-c3ccccc3F)cn2)C1 [Example 18, 3-[5-(2-Fluoro-phenyl)-pyridin-2-yloxy]-azetidine-1-carboxylic acid pyridazin-3-ylamide]
IC50 (human FAAH 1): 16 nM
plasma concentrations after oral administration [2]: high and prolonged
intrinsic-FAAH inhibitory potency (FAAH): good

COc1cccc(-c2ccc(OC3CN(C(=O)Nc4cccnn4)C3)nc2)c1F [Example 19, 3-[5-(2-Fluoro-3-methoxy-phenyl)-pyridin-2-yloxy]-azetidine-1-carboxylic acid pyridazin-3-ylamide]
IC50 (human FAAH 1): 26 nM
